Results published in patent publication US12077503B2, “Substituted cyclic amides and their use as herbicides” (FMC CORPORATION, priority 2015, dated 2024).

Experiments:
Format in all cases: in vivo
[1] = tested on: barnyardgrass (Echinochloa crus-galli); experiment: Test A preemergence; conditions: Echinochloa crus-galli, pre-emergence, 240 h, 0 to 100 scale where 0 is no effect and 100 is complete control, read-out: Barnyardgrass plant response rating
Procedure, shortened: (§1)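 Greenhouse, ~10 d after spray; visual injury vs untreated controls, 0 = no effect, 100 = complete control. Preemergence: directed soil spray over planted seeds. Postemergence: plants 2–10 cm, 1–2 leaf stage. Loam/sand blend. Compound in non-phytotoxic solvent with surfactant.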

[2] = tested on: ragweed (common ragweed, Ambrosia elatior); experiment: Test A preemergence; conditions: Ambrosia artemisiifolia, pre-emergence, 240 h, 0 to 100 scale where 0 is no effect and 100 is complete control, read-out: Ragweed plant response rating
Procedure, shortened: as §1

Kochia (Kochia scoparia) [3] = experiment: Test A preemergence; conditions: Bassia scoparia, pre-emergence, 240 h, 0 to 100 scale where 0 is no effect and 100 is complete control, read-out: Kochia plant response rating
Procedure, shortened: as §1

[4] = tested on: pigweed (Amaranthus retroflexus); experiment: Test A preemergence; conditions: Amaranthus retroflexus, pre-emergence, 240 h, 0 to 100 scale where 0 is no effect and 100 is complete control, read-out: Pigweed plant response rating
[5] = tested on: ryegrass, Italian (Italian ryegrass, Lolium multiflorum); experiment: Test A preemergence; conditions: Lolium multiflorum, pre-emergence, 240 h, 0 to 100 scale where 0 is no effect and 100 is complete control, read-out: Ryegrass, Italian plant response rating
Procedure, shortened: as §1

[6] = tested on: giant foxtail (Setaria faberii); experiment: Test A preemergence; conditions: Setaria faberi, pre-emergence, 240 h, 0 to 100 scale where 0 is no effect and 100 is complete control, read-out: Foxtail, Giant plant response rating
Procedure, shortened: as §1

[7] = tested on: barnyardgrass (Echinochloa crus-galli); experiment: Test A postemergence; conditions: Echinochloa crus-galli, post-emergence, 240 h
Procedure, shortened: as §1

corn (Zea mays) = experiment: Test A postemergence; conditions: Zea mays, post-emergence, 240 h
Procedure, shortened: as §1

[8] = tested on: ragweed (common ragweed, Ambrosia elatior); experiment: Test A postemergence; conditions: Ambrosia artemisiifolia, post-emergence, 240 h
Procedure, shortened: as §1

Kochia (Kochia scoparia) [9] = experiment: Test A postemergence; conditions: Bassia scoparia, post-emergence, 240 h
Procedure, shortened: as §1

[10] = tested on: Galium (catchweed bedstraw, Galium aparine); experiment: Test A postemergence; conditions: Galium, post-emergence, 240 h
Procedure, shortened: as §1

[11] = tested on: pigweed (Amaranthus retroflexus); experiment: Test A postemergence; conditions: Amaranthus retroflexus, post-emergence, 240 h
Procedure, shortened: as §1

[12] = tested on: wheat (Triticum aestivum); experiment: Test A postemergence; conditions: Triticum aestivum, post-emergence, 240 h
Procedure, shortened: as §1

[13] = tested on: ryegrass, Italian (Italian ryegrass, Lolium multiflorum); experiment: Test A postemergence; conditions: Lolium multiflorum, post-emergence, 240 h
Procedure, shortened: as §1

[14] = tested on: giant foxtail (Setaria faberii); experiment: Test A postemergence; conditions: Setaria faberi, post-emergence, 240 h
Procedure, shortened: as §1

[15] = tested on: blackgrass (Alopecurus myosuroides); experiment: Test A postemergence; conditions: Alopecurus myosuroides, post-emergence, 240 h
Procedure, shortened: as §1

[16] = tested on: barnyardgrass (Echinochloa crus-galli); experiment: Test B flooded paddy test; conditions: Echinochloa crus-galli, 250 g ai/ha, Flood; 0 to 100 scale where 0 is no effect and 100 is complete control; read-out: Barnyardgrass plant response rating
Procedure, shortened: (§2)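 2-leaf plants; pots flooded 3 cm over soil; cpd added to paddy water; depth held; greenhouse 13–15 d; visual rating vs controls, 0 = no effect, 100 = complete control.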

[17] = tested on: ducksalad (Heteranthera limosa); experiment: Test B flooded paddy test; conditions: Heteranthera limosa, 250 g ai/ha, Flood; 0 to 100 scale where 0 is no effect and 100 is complete control; read-out: Ducksalad plant response rating
Procedure, shortened: as §2

rice (Oryra sativa) = experiment: Test B flooded paddy test; conditions: Oryza sativa, 250 g ai/ha, Flood; 0 to 100 scale where 0 is no effect and 100 is complete control; read-out: Rice plant response rating
Procedure, shortened: as §2

[18] = tested on: sedge, umbrella (small-flower umbrella sedge, Cyperus difformis); experiment: Test B flooded paddy test; conditions: Cyperus difformis, 250 g ai/ha, Flood; 0 to 100 scale where 0 is no effect and 100 is complete control; read-out: Sedge, Umbrella plant response rating
Procedure, shortened: as §2

[19] = 125 g ai/ha, preemergence, approx. 10 d

CN1CC(c2cccc(C(F)(F)F)c2)C(C(=O)Nc2ccccc2CO)C1=O (stereo not drawn) [Compound 1145]
pest or weed control at 31 g/ha ([1]; 31 g ai/ha, Preemergence): 80% | pest or weed control at 125 g/ha [1, 19]: 90% | pest or weed control at 31 g/ha ([2]; 31 g ai/ha, Preemergence): 0% | pest or weed control at 125 g/ha [2, 19]: 0% | pest or weed control at 31 g/ha (Kochia (Kochia scoparia) [3]; 31 g ai/ha, Preemergence): 0% | pest or weed control at 125 g/ha (Kochia (Kochia scoparia) [3]; [19]): 50% | pest or weed control at 31 g/ha ([4]; 31 g ai/ha, Preemergence): 0% | pest or weed control at 125 g/ha [4, 19]: 0% | pest or weed control at 31 g/ha ([5]; 31 g ai/ha, Preemergence): 0% | pest or weed control at 125 g/ha [5, 19]: 30% | pest or weed control at 31 g/ha ([6]; 31 g ai/ha, Preemergence): 90% | pest or weed control at 125 g/ha [6, 19]: 90% | pest or weed control at 125 g/ha ([7]; 125 g ai/ha, postemergence, visual injury on 0 to 100 scale (0 no effect, 100 complete control), approx. 10 d, read-out: Barnyardgrass plant response rating): 80% | pest or weed control at 31 g/ha ([7]; Postemergence, 31 g ai/ha, visual injury after approx. 10 d, 0 to 100 scale, 0 no effect, 100 complete control, read-out: Plant response rating, Barnyardgrass): 60% | plant injury at 125 g/ha (corn (Zea mays); 125 g ai/ha, postemergence, visual injury on 0 to 100 scale (0 no effect, 100 complete control), approx. 10 d, read-out: Corn plant response rating): 50% | Corn plant response rating (crop injury, 0 = no effect, 100 = complete kill) at 31 g/ha (corn (Zea mays); Postemergence, 31 g ai/ha, visual injury after approx. 10 d, 0 to 100 scale, 0 no effect, 100 complete control): 0% | pest or weed control at 125 g/ha ([8]; 125 g ai/ha, postemergence, visual injury vs untreated controls after approx. 10 d, 0 = no effect, 100 = complete control, read-out: Ragweed plant response rating (0 to 100 scale)): 0% | pest or weed control at 31 g/ha ([8]; Postemergence, 31 g ai/ha, visual injury after approx. 10 d, 0 to 100 scale, 0 no effect, 100 complete control, read-out: Plant response rating, Ragweed): 0% | pest or weed control at 125 g/ha (Kochia (Kochia scoparia) [9]; 125 g ai/ha, postemergence, visual injury on 0 to 100 scale (0 no effect, 100 complete control), approx. 10 d, read-out: Kochia plant response rating): 0% | pest or weed control at 31 g/ha (Kochia (Kochia scoparia) [9]; Postemergence, 31 g ai/ha, visual injury after approx. 10 d, 0 to 100 scale, 0 no effect, 100 complete control, read-out: Plant response rating, Kochia): 0% | pest or weed control at 125 g/ha ([10]; 125 g ai/ha, postemergence, visual injury on 0 to 100 scale (0 no effect, 100 complete control), approx. 10 d, read-out: Galium plant response rating): 0% | pest or weed control at 31 g/ha ([10]; Postemergence, 31 g ai/ha, visual injury after approx. 10 d, 0 to 100 scale, 0 no effect, 100 complete control, read-out: Plant response rating, Galium): 0% | pest or weed control at 125 g/ha ([11]; 125 g ai/ha, postemergence, visual injury vs untreated controls after approx. 10 d, 0 = no effect, 100 = complete control, read-out: Pigweed plant response rating (0 to 100 scale)): 0% | pest or weed control at 31 g/ha ([11]; Postemergence, 31 g ai/ha, visual injury after approx. 10 d, 0 to 100 scale, 0 no effect, 100 complete control, read-out: Plant response rating, Pigweed): 0% | plant injury at 125 g/ha ([12]; 125 g ai/ha, postemergence, visual injury vs untreated controls after approx. 10 d, 0 = no effect, 100 = complete control, read-out: Wheat plant response rating (0 to 100 scale)): 40% | plant injury at 31 g/ha ([12]; Postemergence, 31 g ai/ha, visual injury after approx. 10 d, 0 to 100 scale, 0 no effect, 100 complete control, read-out: Plant response rating, Wheat): 0% | pest or weed control at 125 g/ha ([13]; 125 g ai/ha, postemergence, visual injury vs untreated controls after approx. 10 d, 0 = no effect, 100 = complete control, read-out: Ryegrass, Italian plant response rating (0 to 100 scale)): 20% | pest or weed control at 31 g/ha ([13]; Postemergence, 31 g ai/ha, visual injury after approx. 10 d, 0 to 100 scale, 0 no effect, 100 complete control, read-out: Plant response rating, Ryegrass, Italian): 0% | pest or weed control at 125 g/ha ([14]; 125 g ai/ha, postemergence, visual injury on 0 to 100 scale (0 no effect, 100 complete control), approx. 10 d, read-out: Foxtail, Giant plant response rating): 90% | pest or weed control at 31 g/ha ([14]; Postemergence, 31 g ai/ha, visual injury after approx. 10 d, 0 to 100 scale, 0 no effect, 100 complete control, read-out: Plant response rating, Foxtail, Giant): 50% | pest or weed control at 125 g/ha ([15]; 125 g ai/ha, postemergence, visual injury on 0 to 100 scale (0 no effect, 100 complete control), approx. 10 d, read-out: Blackgrass plant response rating): 50% | pest or weed control at 31 g/ha ([15]; Postemergence, 31 g ai/ha, visual injury after approx. 10 d, 0 to 100 scale, 0 no effect, 100 complete control, read-out: Plant response rating, Blackgrass): 0% | pest or weed control at 250 g/ha [16]: 75% | pest or weed control at 250 g/ha [17]: 60% | pest or weed control at 250 g/ha (rice (Oryra sativa)): 30% | pest or weed control at 250 g/ha [18]: 40%
